Data: patent US8901118B2, “Compounds and methods for kinase modulation, and indications therefor” (Plexxikon Inc., priority 2010, dated 2014)

What was measured:
[1] = Relative solubility by turbidity in aqueous buffers (pH 1.5, 4.5, 6.8, 7.4); type: physicochemical; details: for turbidity threshold (L, M, H) 1.4: pH 1.5 (SGF); for turbidity threshold (L, M, H) 4.5: pH 4.5 (SIF); for turbidity threshold (L, M, H) 6.8: pH 6.8 (SIF); for turbidity threshold (L, M, H) 7.4: pH 7.4 (HEPES)
Procedure, shortened: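 Reported value: concentration at which optical density at 490, 535 and 650 nm passes 0.01, taken as the mean of the three wavelengths. Buffers were 0.5M NaCl pH 1.5, 0.05M NaH2PO4 pH 4.5 or 6.8, and 10 mM HEPES/150 mM NaCl pH 7.4, each receiving serial 1:1 DMSO dilutions of a 25 mM stock.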

TrkA kinase = TrkA kinase (Homo sapiens, UniProt P04629); assay: TrkA kinase biochemical activity assay (AlphaScreen); details: 100 μM ATP; read-out: Biochemical Inhibition IC50 TrkA
Procedure, shortened: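 IC50 values come from AlphaScreen PY20/streptavidin bead signal versus compound concentration. Kinase reaction: 1 ng/well TrkA, 100 μM ATP, 30 nM biotin-(E4Y)10 substrate, Mn2+-containing Hepes buffer pH 7.5, 5% DMSO, 40 min, room temperature; TrkC assayed by the same approach.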

Chain of TrkA kinase (P04629 33-796): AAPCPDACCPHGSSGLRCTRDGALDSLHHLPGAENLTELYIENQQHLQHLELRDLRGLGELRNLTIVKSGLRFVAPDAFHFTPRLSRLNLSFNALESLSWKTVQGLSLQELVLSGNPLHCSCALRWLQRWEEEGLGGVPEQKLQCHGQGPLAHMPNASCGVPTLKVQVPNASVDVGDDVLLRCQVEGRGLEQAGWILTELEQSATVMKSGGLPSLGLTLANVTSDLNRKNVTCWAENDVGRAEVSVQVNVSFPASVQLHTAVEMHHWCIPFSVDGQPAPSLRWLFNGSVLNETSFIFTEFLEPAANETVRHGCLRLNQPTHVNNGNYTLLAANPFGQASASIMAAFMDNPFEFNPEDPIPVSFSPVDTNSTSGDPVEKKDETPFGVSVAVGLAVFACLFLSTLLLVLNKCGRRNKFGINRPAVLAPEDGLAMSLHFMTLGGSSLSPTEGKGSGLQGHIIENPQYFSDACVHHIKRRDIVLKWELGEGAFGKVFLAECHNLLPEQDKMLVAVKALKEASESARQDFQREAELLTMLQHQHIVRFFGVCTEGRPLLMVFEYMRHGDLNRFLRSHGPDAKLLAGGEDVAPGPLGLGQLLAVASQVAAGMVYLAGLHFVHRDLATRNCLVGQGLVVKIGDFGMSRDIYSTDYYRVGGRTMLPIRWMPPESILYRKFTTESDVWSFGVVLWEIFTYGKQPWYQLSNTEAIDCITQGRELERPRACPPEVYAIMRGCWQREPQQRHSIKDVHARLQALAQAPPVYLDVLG

Structure (SMILES)	IC50 (TrkA kinase) [nM]	turbidity threshold (L, M, H) 1.4 [1]	turbidity threshold (L, M, H) 4.5 [1]	turbidity threshold (L, M, H) 6.8 [1]	turbidity threshold (L, M, H) 7.4 [1]
O=C(c1ccc(NC2CCC(F)(F)CC2)nc1)c1c[nH]c2ncnc(NC3CC3)c12 [Compound P-4088, [4-(cyclopropylamino)-7H-pyrrolo[2,3-d]pyrimidin-5-yl]-[6-[(4,4-difluorocyclohexyl)amino]-3-pyridyl]methanone]	< 10	H (high solubility if the threshold concentration is >250 μm)	M (moderate solubility if the threshold concentration is 31.3 μM to 250 μM)	M (moderate solubility if the threshold concentration is 31.3 μM to 250 μM)	M (moderate solubility if the threshold concentration is 31.3 μM to 250 μM)
CCc1ccc(Nc2ccc(C(=O)c3c[nH]c4ncnc(NC5CCC5)c34)c(F)n2)cn1 [Compound P-4095, [4-(cyclobutylamino)-7H-pyrrolo[2,3-d]pyrimidin-5-yl]-[6-[(6-ethyl-3-pyridyl)amino]-2-fluoro-3-pyridyl]methanone]	< 10	M (moderate solubility if the threshold concentration is 31.3 μM to 250 μM)	M (moderate solubility if the threshold concentration is 31.3 μM to 250 μM)	M (moderate solubility if the threshold concentration is 31.3 μM to 250 μM)	M (moderate solubility if the threshold concentration is 31.3 μM to 250 μM)
Fc1ccc(Nc2ncc(Cc3c[nH]c4ncc(Cl)cc34)cn2)cc1 [Compound P-3012, [5-(5-Chloro-1H-pyrrolo[2,3-b]pyridin-3-ylmethyl)-pyrimidin-2-yl]-(4-fluoro-phenyl)-amine]	> 1000	M (moderate solubility if the threshold concentration is 31.3 μM to 250 μM)	M (moderate solubility if the threshold concentration is 31.3 μM to 250 μM)	M (moderate solubility if the threshold concentration is 31.3 μM to 250 μM)	M (moderate solubility if the threshold concentration is 31.3 μM to 250 μM)
O=C(c1ccc(Nc2ccc(C3CC3)nc2)nc1F)c1c[nH]c2ncnc(NC3CC3)c12 [Compound P-4093, [4-(cyclopropylamino)-7H-pyrrolo[2,3-d]pyrimidin-5-yl]-[6-[(6-cyclopropyl-3-pyridyl)amino]-2-fluoro-3-pyridyl]methanone]	< 10	H (high solubility if the threshold concentration is >250 μm)	L (low solubility if the threshold concentration is <31.3 μM)	L (low solubility if the threshold concentration is <31.3 μM)	L (low solubility if the threshold concentration is <31.3 μM)
O=C(c1ccc(NC2CCC(F)(F)CC2)nc1F)c1c[nH]c2ncnc(NC3CC3)c12 [Compound P-4062, [4-(cyclopropylamino)-7H-pyrrolo[2,3-d]pyrimidin-5-yl]-[6-[(4,4-difluorocyclohexyl)amino]-2-fluoro-3-pyridyl]methanone]	< 10	H (high solubility if the threshold concentration is >250 μm)	L (low solubility if the threshold concentration is <31.3 μM)	M (moderate solubility if the threshold concentration is 31.3 μM to 250 μM)	L (low solubility if the threshold concentration is <31.3 μM)
CCc1ccc(Nc2ccc(C(=O)c3c[nH]c4ncnc(N[C@@H](C)c5ccc(F)cc5)c34)c(F)n2)cn1 [Compound P-4097, [6-[(6-ethyl-3-pyridyl)amino]-2-fluoro-3-pyridyl]-[4-[[(1S)-1-(4-fluorophenyl)ethyl]amino]-7H-pyrrolo[2,3-d]pyrimidin-5-yl]methanone]	< 100	M (moderate solubility if the threshold concentration is 31.3 μM to 250 μM)	L (low solubility if the threshold concentration is <31.3 μM)	L (low solubility if the threshold concentration is <31.3 μM)	L (low solubility if the threshold concentration is <31.3 μM)
CCN1CCC(Nc2ncnc3[nH]cc(C(=O)c4ccc(Nc5ccc(OC)nc5)nc4F)c23)CC1 [Compound P-4074, [4-[(1-ethyl-4-piperidyl)amino]-7H-pyrrolo[2,3-d]pyrimidin-5-yl]-[2-fluoro-6-[(6-methoxy-3-pyridyl)amino]-3-pyridyl]methanone]	< 10	H (high solubility if the threshold concentration is >250 μm)	M (moderate solubility if the threshold concentration is 31.3 μM to 250 μM)	M (moderate solubility if the threshold concentration is 31.3 μM to 250 μM)	M (moderate solubility if the threshold concentration is 31.3 μM to 250 μM)
CCc1ccc(Nc2ccc(C(=O)c3c[nH]c4ncnc(NCC(F)(F)F)c34)c(F)n2)cn1 [Compound P-4120, [6-[(6-ethyl-3-pyridyl)amino]-2-fluoro-3-pyridyl]-[4-(2,2,2-trifluoroethylamino)-7H-pyrrolo[2,3-d]pyrimidin-5-yl]methanone]	< 100	L (low solubility if the threshold concentration is <31.3 μM)	M (moderate solubility if the threshold concentration is 31.3 μM to 250 μM)	M (moderate solubility if the threshold concentration is 31.3 μM to 250 μM)	M (moderate solubility if the threshold concentration is 31.3 μM to 250 μM)
O=C(c1ccc(NC2CCC(F)(F)CC2)nc1Cl)c1c[nH]c2ncnc(NCC(F)(F)F)c12 [Compound P-4057, [2-chloro-6-[(4,4-difluorocyclohexyl)amino]-3-pyridyl]-[4-(2,2,2-trifluoroethylamino)-7H-pyrrolo[2,3-d]pyrimidin-5-yl]methanone]	< 1000	L (low solubility if the threshold concentration is <31.3 μM)	L (low solubility if the threshold concentration is <31.3 μM)	L (low solubility if the threshold concentration is <31.3 μM)	M (moderate solubility if the threshold concentration is 31.3 μM to 250 μM)

More lines, main results first:

IC50 (TrkA kinase) [nM]	Structure (SMILES)	turbidity threshold (L, M, H) 1.4 [1]	turbidity threshold (L, M, H) 4.5 [1]	turbidity threshold (L, M, H) 6.8 [1]	turbidity threshold (L, M, H) 7.4 [1]
< 10	CCc1ccc(Nc2ccc(C(=O)c3c[nH]c4ncnc(NC5CC5)c34)c(F)n2)cn1 [Compound P-4125, [4-(cyclopropylamino)-7H-pyrrolo[2,3-d]pyrimidin-5-yl]-[6-[(6-ethyl-3-pyridyl)amino]-2-fluoro-3-pyridyl]methanone]	H (high solubility if the threshold concentration is >250 μm)	L (low solubility if the threshold concentration is <31.3 μM)	L (low solubility if the threshold concentration is <31.3 μM)	L (low solubility if the threshold concentration is <31.3 μM)
< 100	CNc1ncnc2[nH]cc(C(=O)c3ccc(Nc4cncc(OC)c4)nc3F)c12 [Compound P-4108, [2-fluoro-6-[(5-methoxy-3-pyridyl)amino]-3-pyridyl]-[4-(methylamino)-7H-pyrrolo[2,3-d]pyrimidin-5-yl]methanone]	H (high solubility if the threshold concentration is >250 μm)	M (moderate solubility if the threshold concentration is 31.3 μM to 250 μM)	M (moderate solubility if the threshold concentration is 31.3 μM to 250 μM)	M (moderate solubility if the threshold concentration is 31.3 μM to 250 μM)
< 10	CCc1ccc(Nc2ccc(C(=O)c3c[nH]c4ncnc(NCCCOC)c34)c(F)n2)cn1 [Compound P-4098, [6-[(6-ethyl-3-pyridyl)amino]-2-fluoro-3-pyridyl]-[4-(3-methoxypropylamino)-7H-pyrrolo[2,3-d]pyrimidin-5-yl]methanone]	H (high solubility if the threshold concentration is >250 μm)	L (low solubility if the threshold concentration is <31.3 μM)	M (moderate solubility if the threshold concentration is 31.3 μM to 250 μM)	M (moderate solubility if the threshold concentration is 31.3 μM to 250 μM)
< 10	COc1cncc(Nc2ccc(C(=O)c3c[nH]c4ncnc(NC(C)C)c34)c(F)n2)c1 [Compound P-4106, [2-fluoro-6-[(5-methoxy-3-pyridyl)amino]-3-pyridyl]-[4-(isopropylamino)-7H-pyrrolo[2,3-d]pyrimidin-5-yl]methanone]	M (moderate solubility if the threshold concentration is 31.3 μM to 250 μM)	M (moderate solubility if the threshold concentration is 31.3 μM to 250 μM)	L (low solubility if the threshold concentration is <31.3 μM)	M (moderate solubility if the threshold concentration is 31.3 μM to 250 μM)
< 10	CCCNc1ncnc2[nH]cc(C(=O)c3ccc(Nc4ccc(CC)nc4)nc3F)c12 [Compound P-4122, [6-[(6-ethyl-3-pyridyl)amino]-2-fluoro-3-pyridyl]-[4-(propylamino)-7H-pyrrolo[2,3-d]pyrimidin-5-yl]methanone]	H (high solubility if the threshold concentration is >250 μm)	L (low solubility if the threshold concentration is <31.3 μM)	M (moderate solubility if the threshold concentration is 31.3 μM to 250 μM)	L (low solubility if the threshold concentration is <31.3 μM)
